Test results as given in patent publication US20220395472A1 (Dermavant Sciences GmbH, priority 2021, published 2022).

Test system: adults with plaque psoriasis
Assay: Long-term open-label extension study (PSOARING 3): Physician Global Assessment (PGA), treatment episodes, treatment success, remittive effect
Assay type: in vivo, human
Protocol: This extension study consisted of up to 40 weeks of treatment and a 4 week, safety follow up period.
At the completion of the Week 12 visit of the DB, pivotal Phase 3 study, eligibility of the subjects opting to enroll in this extension study was confirmed. Study visits during the treatment period for all subjects occurred every 4 weeks (±3 days). A phone call was performed at Week 2 (Day 15). Unscheduled visits may have occurred, as needed. Subjects who withdrew from this study before Week 40 returned to the study center for an Early Termination visit. The total duration of this extension study participation was 44 weeks. Subjects in this study were treated as follows based on their PGA score from the Week 12 visit in the DB, pivotal Phase 3 study (Study DMVT 505 3001 or Study DMVT 505 3002).
The PGA was used to assess the primary efficacy endpoint in this study. The PGA is a clinical tool for assessing the current state/severity of a subject's psoriasis at a given time point. It is a static, 5 point, morphological assessment of overall disease severity, as determined by the Investigator, using the clinical characteristics of erythema, scaling, and plaque thickness/elevation as guidelines; higher PGA scores represent more severe disease (0=clear, 1=almost clear, 2=mild, 3=moderate, and 4=severe). The BSA affected was not considered in scoring of the PGA. Variations of the PGA are frequently used in clinical studies because it is a simple assessment, similar to those used in clinical practice. The PGA was performed first, prior to the % BSA, PASI, and LTS assessments.
Time to event parameters, such as the time from treatment success to subsequent worsening (PGA≥2) or duration of treatment episode, were summarized by the Kaplan Meier product limit method using OC.

[1] = Baseline PGA = 1, Tapinarof (Pivotal) group
[2] = Baseline PGA = 1, Vehicle (Pivotal) group
[3] = Baseline PGA = 2, Tapinarof (Pivotal) group

In the case of `CC(C)c1c(O)cc(/C=C/c2ccccc2)cc1O` [Tapinarof, 3,5-Dihydroxy-4-isopropyl-trans-stilbene], the “Duration of 3rd Success, Mean (SD)” value (Baseline PGA = 1, Overall) is reported as 15.0 (19.80) days, the “Duration of 3rd Success, Median” value (Baseline PGA = 1, Overall) is reported as 15.0 days and the “Duration of Last Episode, Mean (SD)” value (Baseline PGA = 1, Overall) is reported as 146.7 (95.87) days. For the same compound, the “Duration of Last Episode, Median” value (Baseline PGA = 1, Overall) was 141.0 days, the “Duration of Last Success, Median” value (Baseline PGA = 1, Overall) was 90.0 days and the “Total Duration of Treatment Episodes, Mean (SD)” value (Baseline PGA = 1, Overall) was 165.9 (90.32) days. For the same compound, the “Total Duration of Treatment Episodes, Median” value (Baseline PGA = 1, Overall) was 193.0 days, the “Total Duration of Treatment Success, Mean (SD)” value (Baseline PGA = 1, Overall) was 124.5 (78.53) days and the “Total Duration of Treatment Success, Median” value (Baseline PGA = 1, Overall) was 120.0 days. For the same compound, the “Average Duration of Episodes, Mean (SD)” value [1] was 138.9 (94.99) days, the “Average Duration of Episodes, Median” value [1] was 112.0 days and the “Average Duration of Treatment Success, Mean (SD)” value [1] was 106.8 (76.36) days. For the same compound, the “Average Duration of Treatment Success, Median” value [1] was 92.5 days, the “Duration of 1st Episode, Mean (SD)” value [1] was 132.6 (99.69) days and the “Duration of 1st Episode, Median” value [1] was 85.5 days. For the same compound, the “Duration of 1st Success, Mean (SD)” value [1] was 106.3 (77.57) days, the “Duration of 1st Success, Median” value [1] was 86.0 days and the “Duration of 2nd Episode, Mean (SD)” value [1] was 97.9 (62.19) days. The “Duration of 2nd Episode, Median” value [1] was 83.0 days, the “Duration of 2nd Success, Mean (SD)” value [1] was 71.6 (58.68) days and the “Duration of 2nd Success, Median” value [1] was 52.0 days. The “Duration of 3rd Episode, Mean (SD)” value [1] was 54.9 (56.83) days, the “Duration of 3rd Episode, Median” value [1] was 28.0 days and the “Duration of 3rd Success, Mean (SD)” value [1] was 15.0 (19.80) days. The “Duration of 3rd Success, Median” value [1] was 15.0 days, the “Duration of Last Episode, Mean (SD)” value [1] was 145.2 (96.38) days and the “Duration of Last Episode, Median” value [1] was 144.0 days. The “Duration of Last Success, Mean (SD)” value [1] was 107.2 (79.80) days, the “Duration of Last Success, Median” value [1] was 85.5 days and the “Total Duration of Treatment Episodes, Mean (SD)” value [1] was 165.9 (90.68) days. The “Total Duration of Treatment Episodes, Median” value [1] was 194.5 days, the “Total Duration of Treatment Success, Mean (SD)” value [1] was 123.7 (78.29) days and the “Total Duration of Treatment Success, Median” value [1] was 116.5 days. The “Average Duration of Episodes, Mean (SD)” value [2] was 150.0 (97.54) days, the “Average Duration of Episodes, Median” value [2] was 112.0 days and the “Average Duration of Treatment Success, Mean (SD)” value [2] was 116.9 (71.80) days. For the same compound, the “Average Duration of Treatment Success, Median” value [2] was 127.0 days, the “Duration of 1st Episode, Mean (SD)” value [2] was 141.1 (105.95) days and the “Duration of 1st Episode, Median” value [2] was 112.0 days. For the same compound, the “Duration of 1st Success, Mean (SD)” value [2] was 115.0 (71.74) days, the “Duration of 1st Success, Median” value [2] was 127.0 days and the “Duration of 2nd Episode, Mean (SD)” value [2] was 104.0 (61.27) days. For the same compound, the “Duration of 2nd Episode, Median” value [2] was 109.5 days, the “Duration of 2nd Success, Mean (SD)” value [2] was 144.0 (NE) days and the “Duration of 2nd Success, Median” value [2] was 144.0 days. For the same compound, the “Duration of Last Episode, Mean (SD)” value [2] was 159.0 (93.38) days, the “Duration of Last Episode, Median” value [2] was 134.0 days and the “Duration of Last Success, Mean (SD)” value [2] was 118.9 (72.32) days. For the same compound, the “Duration of Last Success, Median” value [2] was 136.0 days, the “Total Duration of Treatment Episodes, Mean (SD)” value [2] was 165.5 (89.94) days and the “Total Duration of Treatment Episodes, Median” value [2] was 140.0 days. For the same compound, the “Total Duration of Treatment Success, Mean (SD)” value [2] was 131.0 (85.06) days, the “Total Duration of Treatment Success, Median” value [2] was 136.0 days and the “Average Duration of Episodes, Mean (SD)” value (Baseline PGA = 2, Overall) was 175.5 (93.95) days. The “Average Duration of Episodes, Median” value (Baseline PGA = 2, Overall) was 197.0 days, the “Average Duration of Treatment Success, Mean (SD)” value (Baseline PGA = 2, Overall) was 83.6 (69.31) days and the “Average Duration of Treatment Success, Median” value (Baseline PGA = 2, Overall) was 66.5 days. For the same compound, the “Duration of 1st Episode, Mean (SD)” value (Baseline PGA = 2, Overall) was 177.8 (92.43) days, the “Duration of 1st Episode, Median” value (Baseline PGA = 2, Overall) was 197.0 days and the “Duration of 1st Success, Mean (SD)” value (Baseline PGA = 2, Overall) was 90.4 (72.34) days. For the same compound, the “Duration of 1st Success, Median” value (Baseline PGA = 2, Overall) was 83.0 days, the “Duration of 2nd Episode, Mean (SD)” value (Baseline PGA = 2, Overall) was 67.5 (52.79) days and the “Duration of 2nd Episode, Median” value (Baseline PGA = 2, Overall) was 59.0 days. The “Duration of 2nd Success, Mean (SD)” value (Baseline PGA = 2, Overall) was 31.9 (43.41) days, the “Duration of 2nd Success, Median” value (Baseline PGA = 2, Overall) was 27.5 days and the “Duration of 3rd Episode, Mean (SD)” value (Baseline PGA = 2, Overall) was 28.7 (27.50) days. The “Duration of 3rd Episode, Median” value (Baseline PGA = 2, Overall) was 29.0 days, the “Duration of 3rd Success, Mean (SD)” value (Baseline PGA = 2, Overall) was 29.0 (NE) days and the “Duration of 3rd Success, Median” value (Baseline PGA = 2, Overall) was 29.0 days. The “Duration of Last Episode, Mean (SD)” value (Baseline PGA = 2, Overall) was 173.2 (97.88) days, the “Duration of Last Episode, Median” value (Baseline PGA = 2, Overall) was 197.0 days and the “Duration of Last Success, Mean (SD)” value (Baseline PGA = 2, Overall) was 77.3 (73.84) days. For the same compound, the “Duration of Last Success, Median” value (Baseline PGA = 2, Overall) was 56.0 days, the “Total Duration of Treatment Episodes, Mean (SD)” value (Baseline PGA = 2, Overall) was 188.8 (87.61) days and the “Total Duration of Treatment Episodes, Median” value (Baseline PGA = 2, Overall) was 200.0 days. The “Total Duration of Treatment Success, Mean (SD)” value (Baseline PGA = 2, Overall) was 98.0 (74.01) days, the “Total Duration of Treatment Success, Median” value (Baseline PGA = 2, Overall) was 84.0 days and the “Average Duration of Episodes, Mean (SD)” value [3] was 177.3 (95.45) days. For the same compound, the “Average Duration of Episodes, Median” value [3] was 197.0 days, the “Average Duration of Treatment Success, Mean (SD)” value [3] was 78.7 (71.03) days and the “Average Duration of Treatment Success, Median” value [3] was 57.0 days. For the same compound, the “Duration of 1st Episode, Mean (SD)” value [3] was 179.2 (94.49) days and the “Duration of 1st Episode, Median” value [3] was 197.0 days.
